{"source": "paper PMC8586708", "about": "“SC75741, A Novel c-Abl Inhibitor, Promotes the Clearance of TDP25 Aggregates via ATG5-Dependent Autophagy Pathway” (Frontiers in Pharmacology, 2021)", "target": "T1, c-Abl (Homo sapiens, UniProt P00519)", "T1 construct": "gene ABL1", "T1 sequence (P00519 whole entry)": "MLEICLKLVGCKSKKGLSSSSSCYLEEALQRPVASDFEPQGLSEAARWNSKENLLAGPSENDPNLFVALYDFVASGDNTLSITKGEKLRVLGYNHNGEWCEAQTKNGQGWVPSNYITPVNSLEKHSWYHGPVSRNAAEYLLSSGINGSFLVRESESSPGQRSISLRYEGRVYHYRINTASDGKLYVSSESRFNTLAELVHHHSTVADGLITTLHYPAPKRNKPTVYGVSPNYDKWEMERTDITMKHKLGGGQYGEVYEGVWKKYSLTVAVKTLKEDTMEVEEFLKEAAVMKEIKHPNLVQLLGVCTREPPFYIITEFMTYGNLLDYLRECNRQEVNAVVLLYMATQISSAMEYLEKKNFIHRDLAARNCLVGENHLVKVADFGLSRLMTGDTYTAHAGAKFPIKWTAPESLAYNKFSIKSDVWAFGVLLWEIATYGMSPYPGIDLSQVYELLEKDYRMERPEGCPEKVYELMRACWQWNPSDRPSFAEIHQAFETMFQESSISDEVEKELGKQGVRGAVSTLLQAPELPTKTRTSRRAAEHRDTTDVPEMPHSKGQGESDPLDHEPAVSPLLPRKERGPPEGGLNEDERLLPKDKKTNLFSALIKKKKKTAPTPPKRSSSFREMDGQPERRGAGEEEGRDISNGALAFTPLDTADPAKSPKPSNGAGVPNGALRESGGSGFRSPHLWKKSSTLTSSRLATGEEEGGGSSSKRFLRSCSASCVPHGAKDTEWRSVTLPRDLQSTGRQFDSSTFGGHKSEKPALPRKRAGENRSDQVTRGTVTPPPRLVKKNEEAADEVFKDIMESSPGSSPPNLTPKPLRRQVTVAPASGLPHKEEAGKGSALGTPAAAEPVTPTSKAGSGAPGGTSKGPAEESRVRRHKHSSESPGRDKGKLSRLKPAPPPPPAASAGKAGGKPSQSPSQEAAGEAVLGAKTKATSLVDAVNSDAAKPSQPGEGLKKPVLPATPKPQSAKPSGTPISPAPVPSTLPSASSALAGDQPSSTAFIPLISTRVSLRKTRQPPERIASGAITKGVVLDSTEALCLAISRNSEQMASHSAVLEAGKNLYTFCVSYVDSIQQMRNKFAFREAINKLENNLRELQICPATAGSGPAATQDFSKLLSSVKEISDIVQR", "assay": "in vitro kinase assay, dose-response", "format": "biochemical"}
{"molecule": "O=C(c1ccccc1)c1ccc2nc(NC(=O)c3csc(C4CCN(c5ncnc6ccsc56)CC4)n3)[nH]c2c1", "note": "[SC75741]", "values": [{"measurement": "IC50", "value": 263, "unit": "nM"}]}
